Read-outs that look alike come from different tables or passages of the source.
How the values were obtained:
[1] = test system: NF-κB pathway (SEAP) in THP1-Dual cells; assay: THP-1 Dual cell SEAP assay (L18-MDP stimulated); type: cell-based; conditions: Homo sapiens, THP1-Dual, read-out: NFkB THP1 IC50
[2] = target: GST-RIPK2 fusion protein (human RIPK2 amino acids 1-310) (Homo sapiens (Human), UniProt O43353); assay: RIPK2 binding competition assay (TR-FRET, Tracer 199)
[3] = read-out: RIPK2 IC50, RIPK2 binding competition assay

GST-RIPK2 fusion protein (human RIPK2 amino acids 1-310), sequence (O43353 1-310): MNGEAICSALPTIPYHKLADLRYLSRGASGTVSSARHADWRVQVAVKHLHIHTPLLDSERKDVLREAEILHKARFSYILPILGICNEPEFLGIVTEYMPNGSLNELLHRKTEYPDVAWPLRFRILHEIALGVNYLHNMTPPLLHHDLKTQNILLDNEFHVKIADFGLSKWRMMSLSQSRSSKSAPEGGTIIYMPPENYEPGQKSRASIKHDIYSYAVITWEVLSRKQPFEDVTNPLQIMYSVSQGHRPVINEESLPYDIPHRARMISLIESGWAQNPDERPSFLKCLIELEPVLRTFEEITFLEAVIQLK

Structure (SMILES)	IC50 [1] [nM]	IC50 [2] [nM]	IC50 [2, 3] [nM]
COc1cc2ncc(-c3cc(F)nc(NC[C@H]4CCNC(=O)C4)c3)n2cc1S(=O)(=O)C(C)(C)C (single isomer, unassigned) [Example 239, (4R or S)-4-[({6-fluoro-4-[7-methoxy-6-(2-methylpropane-2-sulfonyl)imidazo[1,2-a]pyridin-3-yl]pyridin-2-yl}amino)methyl]pi peridin-2-one]	< 50	< 1	–
COc1cc2ncc(-c3cc(F)nc(NCC[C@H]4CNC(=O)C4)c3)n2cc1S(=O)(=O)C(C)(C)C (single isomer, unassigned) [Example 240, (4R or S)-4-[2-({6-fluoro-4-[7-methoxy-6-(2-methylpropane-2-sulfonyl)imidazo[1,2-a]pyridin-3-yl]pyridin-2-yl}amino)ethyl] pyrrolidin-2-one]	< 50	< 1	–
COc1cc2ncc(-c3cc(F)nc(NCC[C@@H]4CNC(=O)C4)c3)n2cc1S(=O)(=O)C(C)(C)C (single isomer, unassigned) [Example 241, (4R or S)-4-[2-({6-fluoro-4-[7-methoxy-6-(2-methylpropane-2-sulfonyl)imidazo[1,2-a]pyridin-3-yl]pyridin-2-yl}amino)ethyl] pyrrolidin-2-one]	< 50	< 1	–
COc1cc2ncc(-c3cc(F)nc(N[C@@H]4CCCC[C@H]4O)c3)n2cc1S(=O)(=O)C(C)(C)C (single isomer, unassigned) [Example 244, trans-(15,2S or 1R,2R)-2-({6-fluoro-4-[7-methoxy-6-(2-methylpropane-2-sulfonyl)imidazo[1,2-a]pyridin-3-yl]pyridin-2-yl}amino)cyclohexan-1-ol]	250 to 1000	2.5 to 20	–
COc1cc2ncc(-c3cc(F)nc(N[C@H]4CCCC[C@@H]4O)c3)n2cc1S(=O)(=O)C(C)(C)C (single isomer, unassigned) [Example 245, trans-(15,2S or 1R,2R)-2-({6-fluoro-4-[7-methoxy-6-(2-methylpropane-2-sulfonyl)imidazo[1,2-a]pyridin-3-yl]pyridin-2-yl}amino)cyclohexan-1-ol]	250 to 1000	2.5 to 20	–
CC(C)(C)S(=O)(=O)c1ccc2ncc(-c3cc(F)nc(F)c3)n2c1 [Example 1, 6-(tert-butylsulfonyl)-3-(2,6-difluoropyridin-4-yl)imidazo[1,2-a]pyridine]	> 1000	–	> 20
COc1cc2ncc(-c3cc(N)c(OC)c(F)c3)n2cc1S(=O)(=O)C(C)(C)C [Example 2, 5-(6-(tert-butylsulfonyl)-7-methoxyimidazo[1,2-a]pyridin-3-yl)-3-fluoro-2-methoxyaniline]	> 1000	2.5 to 20	–
COc1cc2ncc(-c3cc(F)c(C#N)c(F)c3)n2cc1S(=O)(=O)C(C)(C)C [Example 3, 4-(6-(tert-butylsulfonyl)-7-methoxyimidazo[1,2-a]pyridin-3-yl)-2,6-difluorobenzonitrile]	> 1000	–	> 20
COc1cc2ncc(-c3cn[nH]c3)n2cc1S(=O)(=O)C(C)(C)C [Example 4, 6-(tert-butylsulfonyl)-7-methoxy-3-(1H-pyrazol-4-yl)imidazo[1,2-a]pyridine]	250 to 1000	2.5 to 20	–
COc1cc2ncc(-c3cc(N)nc(C(F)(F)F)c3)n2cc1S(=O)(=O)C(C)(C)C [Example 6, 4-(6-(tert-butylsulfonyl)-7-methoxyimidazo[1,2-a]pyridin-3-yl)-6-(trifluoromethyl) pyridin-2-amine]	> 1000	2.5 to 20	–
COc1cc2ncc(-c3cc(N)c(=O)n(C)c3)n2cc1S(=O)(=O)C(C)(C)C [Example 7, 3-amino-5-(6-(tert-butylsulfonyl)-7-methoxyimidazo[1,2-a]pyridin-3-yl)-1-methylpyridin-2(1H)-one]	250 to 1000	2.5 to 20	–
COc1cc2ncc(-c3cc(Cl)nc(Cl)c3)n2cc1S(=O)(=O)C(C)(C)C [Example 8, 6-(tert-butylsulfonyl)-3-(2,6-dichloropyridin-4-yl)-7-methoxyimidazo[1,2-a]pyridine]	> 1000	–	> 20
COc1cc2ncc(-c3ccc(F)nc3F)n2cc1S(=O)(=O)C(C)(C)C [Example 9, 6-(tert-butylsulfonyl)-3-(2,6-difluoropyridin-3-yl)-7-methoxyimidazo[1,2-a]pyridine]	> 1000	–	> 20
CCCS(=O)(=O)Nc1cc(-c2cnc3cc(OC)c(S(=O)(=O)C(C)(C)C)cn23)cc(OC)c1OC [Example 10, N-(5-(6-(tert-butylsulfonyl)-7-methoxyimidazo[1,2-a]pyridin-3-yl)-2,3-dimethoxyphenyl) propane-1-sulfonamide]	< 50	–	< 1
COc1cc2ncc(-c3cc(F)cc([N+](=O)[O-])c3)n2cc1S(=O)(=O)C(C)(C)C [Example 13, 3-(3-fluoro-5-nitrophenyl)-7-methoxy-6-(2-methylpropane-2-sulfonyl)imidazo[1,2-a]pyridine]	> 1000	> 20	–
COc1cc2ncc(-c3ccc(N)nc3F)n2cc1S(=O)(=O)C(C)(C)C [Example 14, 5-(6-(tert-butylsulfonyl)-7-methoxyimidazo[1,2-a]pyridin-3-yl)-6-fluoropyridin-2-amine]	> 1000	–	> 20
COc1cc2ncc(-c3ccc(N)nc3)n2cc1S(=O)(=O)C(C)(C)C [Example 15, 5-(6-(tert-butylsulfonyl)-7-methoxyimidazo[1,2-a]pyridin-3-yl)pyridin-2-amine]	> 1000	–	> 20

Structure (SMILES)	IC50 [1] [nM]	IC50 [2] [nM]	IC50 [2, 3] [nM]
COc1cc2ncc(-c3ccc(N(C)C)nc3)n2cc1S(=O)(=O)C(C)(C)C [Example 16, 5-(6-(tert-butylsulfonyl)-7-methoxyimidazo[1,2-a]pyridin-3-yl)-N,N-dimethylpyridin-2-amine]	> 1000	–	> 20
COc1cc2ncc(-c3cnc(N)c(OC)c3)n2cc1S(=O)(=O)C(C)(C)C [Example 17, 5-(6-(tert-butylsulfonyl)-7-methoxyimidazo[1,2-a]pyridin-3-yl)-3-methoxypyridin-2-amine]	> 1000	–	> 20
COc1cc2ncc(-c3ccc(N)cc3)n2cc1S(=O)(=O)C(C)(C)C [Example 18, 4-(6-(tert-butylsulfonyl)-7-methoxyimidazo[1,2-a]pyridin-3-yl)aniline]	> 1000	–	> 20
COc1cc2ncc(-c3cnc(N)c(C(F)(F)F)c3)n2cc1S(=O)(=O)C(C)(C)C [Example 19, 5-(6-(tert-butylsulfonyl)-7-methoxyimidazo[1,2-a]pyridin-3-yl)-3-(trifluoromethyl)pyridin-2-amine]	> 1000	–	> 20
COc1cc2ncc(-c3ccc(N)c(F)c3)n2cc1S(=O)(=O)C(C)(C)C [Example 20, 4-(6-(tert-butylsulfonyl)-7-methoxyimidazo[1,2-a]pyridin-3-yl)-2-fluoroaniline]	250 to 1000	2.5 to 20	–
COc1cc2ncc(-c3cnc(N)cc3F)n2cc1S(=O)(=O)C(C)(C)C [Example 21, 5-(6-(tert-butylsulfonyl)-7-methoxyimidazo[1,2-a]pyridin-3-yl)-4-fluoropyridin-2-amine]	> 1000	–	> 20
COc1cc2ncc(-c3cnc(N)c(Cl)c3)n2cc1S(=O)(=O)C(C)(C)C [Example 22, 5-(6-(tert-butylsulfonyl)-7-methoxyimidazo[1,2-a]pyridin-3-yl)-3-chloropyridin-2-amine]	> 1000	2.5 to 20	–
COc1cc2ncc(-c3cnc(N)c(C#N)c3)n2cc1S(=O)(=O)C(C)(C)C [Example 23, 2-amino-5-(6-(tert-butylsulfonyl)-7-methoxyimidazo[1,2-a]pyridin-3-yl)nicotinonitrile]	> 1000	–	> 20
COc1cc(N)cc(-c2cnn3ccc(S(=O)(=O)C(C)(C)C)cc23)c1 [Example 24, 3-(5-(tert-butylsulfonyl)pyrazolo [1,5-a]pyridin-3-yl)-5-methoxyaniline]	> 1000	–	> 20
COc1ccc(-c2cnn3ccc(S(=O)(=O)C(C)(C)C)cc23)cc1N [Example 25, 5-(5-(tert-butylsulfonyl)pyrazolo [1,5-a]pyridin-3-yl)-2-methoxyaniline]	> 1000	–	> 20
CC(C)(C)S(=O)(=O)c1ccn2ncc(-c3ccc(N)nc3)c2c1 [Example 26, 5-(5-(tert-butylsulfonyl)pyrazolo [1,5-a]pyridin-3-yl)pyridin-2-amine]	> 1000	–	> 20
COc1cc2ncc(-c3ccc(F)c(N)c3F)n2cc1S(=O)(=O)C(C)(C)C [Example 27, 3-(6-(tert-butylsulfonyl)-7-methoxyimidazo[1,2-a]pyridin-3-yl)-2,6-difluoroaniline]	> 1000	2.5 to 20	–
COc1cc2ncc(-c3ccc(OC)c(N)c3F)n2cc1S(=O)(=O)C(C)(C)C [Example 28, 3-(6-(tert-butylsulfonyl)-7-methoxyimidazo[1,2-a]pyridin-3-yl)-2-fluoro-6-methoxyaniline]	> 1000	2.5 to 20	–
COc1cc2ncc(-c3cccc(N)c3F)n2cc1S(=O)(=O)C(C)(C)C [Example 29, 3-(6-(tert-butylsulfonyl)-7-methoxyimidazo[1,2-a]pyridin-3-yl)-2-fluoroaniline]	> 1000	2.5 to 20	–
COc1cc2ncc(-c3cncc(N)c3)n2cc1S(=O)(=O)C(C)(C)C [Example 30, 5-(6-(tert-butylsulfonyl)-7-methoxyimidazo[1,2-a]pyridin-3-yl)pyridin-3-amine]	> 1000	–	> 20
COc1cc2ncc(-c3cnc(N)c(N)c3)n2cc1S(=O)(=O)C(C)(C)C [Example 31, 5-(6-(tert-butylsulfonyl)-7-methoxyimidazo[1,2-a]pyridin-3-yl)pyridine-2,3-diamine]	> 1000	–	> 20
COc1cc2ncc(-c3cc(N)ccc3F)n2cc1S(=O)(=O)C(C)(C)C [Example 32, 3-(6-(tert-butylsulfonyl)-7-methoxyimidazo[1,2-a]pyridin-3-yl)-4-fluoroaniline]	> 1000	–	> 20

Reference: US20250346593A1, “IMIDAZO(1,2-1)PYRIDINE DERIVATIVES AS RIPK2 INHIBITORS” (Interline Therapeutics, Inc., priority 2022, published 2025)
